# From patent US9187464B2, “TRPV4 antagonists” (GlaxoSmithKline Intellectual Property (No. 2) Limited, priority 2011, dated 2015)
# Target: T1, human TRPV4 (Homo sapiens, UniProt Q9HBA0)
# T1 construct: expressed in transfected cells; host or cells: HEK-293-MSR-II cells transduced with 1% BacMam virus
# Test: Ligand-gated assay (Fluo4 calcium, FLIPR; inhibition of agonist-induced activation)
# Type: cell-based
# Details: HEK-293-MSR-II cells transduced with BacMam human TRPV4; agonist at EC80
# Method: TRP channel activation/opening results in an influx of divalent and monovalent cations including calcium. The resulting changes in intracellular calcium were monitored using a calcium selective fluorescent dye Fluo4 (MDS Analytical Technologies). Dye loaded cells were initially exposed to test compound to verify a lack of agonist activity. Cells were subsequently activated by addition of an agonist and inhibition of the agonist-induced activation was recorded. Human embryonic kidney 293 cells stably expressing the macrophage scavenger receptor class II (HEK-293-MSR-II) and transduced with 1% BacMam (J. P. Condreay, S. M. Witherspoon, W. C. Clay and T. A. Kost, Proc Natl Acad Sci 96 (1999), pp. 127-132) virus expressing the human TRPV4 gene were plated at 15000 cells/well in a volume of 50 μL in a 384 well poly-D lysine coated plate. Cells were incubated for 24 hours at 37 degrees and 5% CO2. Media was then aspirated using a Tecan Plate-washer and replaced with 20 μL of dye loading buffer: HBSS, 500 uM Brilliant Black (MDS Analytical Technologies), 2 uM Fluo-4. Dye loaded plates were then incubated in the dark at room temperature for 1-1.5 hours. 10 μL of test compound diluted in HBSS (HBSS with 1.5 mM Calcium Chloride, 1.5 mM Magnesium Chloride and 10 mM HEPES. pH 7.4), +0.01% Chaps was added to the plate, incubated for 10 min at room temperature in the dark and then 10 μL of agonist was added at a final concentration equal to the agonist EC80. Calcium release was measured using the FLIPRtetra (MDS Analytical Technologies) or FLIPR384 (MDS Analytical Technologies).
# IC50 between 0.1-10 nM (+++), >10-50 nM (++), >50-500 nM (+).
# T1 sequence (Q9HBA0 whole entry): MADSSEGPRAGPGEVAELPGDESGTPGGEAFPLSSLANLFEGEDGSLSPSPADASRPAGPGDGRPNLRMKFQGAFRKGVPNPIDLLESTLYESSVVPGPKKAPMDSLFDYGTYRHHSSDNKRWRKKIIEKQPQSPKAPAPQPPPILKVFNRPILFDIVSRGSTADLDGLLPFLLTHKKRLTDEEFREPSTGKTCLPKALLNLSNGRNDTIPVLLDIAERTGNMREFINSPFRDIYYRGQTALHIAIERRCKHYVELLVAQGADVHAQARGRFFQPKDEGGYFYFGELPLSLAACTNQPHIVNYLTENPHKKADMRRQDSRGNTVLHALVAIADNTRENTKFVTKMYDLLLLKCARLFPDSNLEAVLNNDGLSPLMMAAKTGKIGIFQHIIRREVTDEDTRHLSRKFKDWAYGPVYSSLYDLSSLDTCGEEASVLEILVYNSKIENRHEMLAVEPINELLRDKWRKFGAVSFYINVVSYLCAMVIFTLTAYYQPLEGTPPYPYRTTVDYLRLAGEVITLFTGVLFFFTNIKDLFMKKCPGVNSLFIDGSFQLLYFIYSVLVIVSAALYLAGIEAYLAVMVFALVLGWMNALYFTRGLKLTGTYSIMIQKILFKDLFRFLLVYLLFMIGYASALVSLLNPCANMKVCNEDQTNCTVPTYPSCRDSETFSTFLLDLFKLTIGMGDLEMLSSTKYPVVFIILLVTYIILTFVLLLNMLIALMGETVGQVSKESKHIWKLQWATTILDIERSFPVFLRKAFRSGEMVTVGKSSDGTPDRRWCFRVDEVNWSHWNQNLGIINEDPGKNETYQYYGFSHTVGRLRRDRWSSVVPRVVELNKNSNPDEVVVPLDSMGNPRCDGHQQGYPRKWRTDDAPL
row,IC50,Compound
1,10 to 50 nM,"C[C@]1(Cn2cnc3ccc(C#N)cc32)CCC[C@@]2(CN(c3cc(C(F)(F)F)no3)C(=O)O2)C1 [Example 37, 1-({(5S,7S)-7-methyl-2-oxo-3-[3-(trifluoromethyl)-5-isoxazolyl]-1-oxa-3-azaspiro[4.5]dec-7-yl}methyl)-1H-benzimidazole-6-carbonitrile]"
2,50 to 500 nM,"Cn1nc(C(C)(C)C)cc1N1C[C@@]2(CCC[C@](C)(Cn3cnc4ccc(C#N)cc43)C2)OC1=O [Example 36, 1-({(5S,7S)-3-[3-(1,1-dimethylethyl)-1-methyl-1H-pyrazol-5-yl]-7-methyl-2-oxo-1-oxa-3-azaspiro[4.5]dec-7-yl}methyl)-1H-benzimidazole-6-carbonitrile]"
3,0.1 to 10 nM,"Cc1cc(Cl)ncc1N1C[C@@]2(CCC[C@](C)(Cn3cnc4ccc(C#N)cc43)C2)OC1=O [Example 119, 1-(((5S,7S)-3-(6-chloro-4-methylpyridin-3-yl)-7-methyl-2-oxo-1-oxa-3-azaspiro[4.5]decan-7-yl)methyl)-1H-benzo[d]imidazole-6-carbonitrile]"
4,0.1 to 10 nM,"C[C@]1(Cn2cnc3ccc(C#N)cc32)CCC[C@@]2(CN(c3cnccc3C(F)(F)F)C(=O)O2)C1 [Example 144, 1-(((5S,7S)-7-methyl-2-oxo-3-(4-(trifluoromethyl)pyridin-3-yl)-1-oxa-3-azaspiro[4.5]decan-7-yl)methyl)-1H-benzo[d]imidazole-6-carbonitrile]"
5,0.1 to 10 nM,"CC(C)c1noc(C(C)(C)CN2C[C@@]3(CCC[C@H](Cn4cnc5ccc(C#N)cc54)C3)OC2=O)n1 [Example 76, 1-[((5S,7S)-3-{2-methyl-2-[3-(1-methylethyl)-1,2,4-oxadiazol-5-yl]propyl}-2-oxo-1-oxa-3-azaspiro[4.5]dec-7-yl)methyl]-1H-benzimidazole-6-carbonitrile]"
6,0.1 to 10 nM,"C[C@]1(Cn2cnc3ccc(C#N)cc32)CCC[C@@]2(CN(c3ccc(C(F)(F)F)nc3)C(=O)O2)C1 [Example 139, 1-({(5S,7S)-7-methyl-2-oxo-3-[6-(trifluoromethyl)-3-pyridinyl]-1-oxa-3-azaspiro[4.5]dec-7-yl}methyl)-1H-benzimidazole-6-carbonitrile]"
7,0.1 to 10 nM,"COc1cc(Cl)ncc1N1C[C@@]2(CCC[C@H](Cn3cnc4ccc(C#N)cc43)C2)OC1=O [Example 123, 1-(((5S,7S)-3-(6-chloro-4-methoxypyridin-3-yl)-2-oxo-1-oxa-3-azaspiro[4.5]decan-7-yl)methyl)-1H-benzo[d]imidazole-6-carbonitrile]"
8,50 to 500 nM,"N#Cc1ccc2ncn(C[C@H]3CCC[C@]4(C3)CN(Cc3csc5ncccc35)C(=O)O4)c2c1 [Example 151, 1-{[(5S,7S)-2-oxo-3-(thieno[2,3-b]pyridin-3-ylmethyl)-1-oxa-3-azaspiro[4.5]dec-7-yl]methyl}-1H-benzimidazole-6-carbonitrile]"
9,0.1 to 10 nM,"CC(C)(C)OC(=O)OCC(C)(C)c1cc(N2C[C@@]3(CCC[C@](C)(Cn4cnc5ccc(C#N)cc54)C3)OC2=O)on1 [Example 20, Tert-butyl (2-(5-((5S,7S)-7-((6-cyano-1H-benzo[d]imidazol-1-yl)methyl)-7-methyl-2-oxo-1-oxa-3-azaspiro[4.5]decan-3-yl)isoxazol-3-yl)-2-methylpropyl) carbonate]"
10,10 to 50 nM,"CCOc1cc(C)c(N2C[C@@]3(CCC[C@H](Cn4cnc5ccc(C#N)cc54)C3)OC2=O)cn1 [Example 23, 1-(((5S,7S)-3-(6-Ethoxy-4-methylpyridin-3-yl)-2-oxo-1-oxa-3-azasbiro[4.5]decan-7-yl)methyl)-1H-benzo[d]imidazole-6-carbonitrile]"
11,10 to 50 nM,"CC(C)(C)c1cc(N2C[C@@]3(CCC[C@](C)(Cn4cnc5ccc(C#N)cc54)C3)OC2=O)on1 [Example 1, 1-({(5S,7S)-3-[3-(1,1-Dimethylethyl)-5-isoxazolyl]-7-methyl-2-oxo-1-oxa-3-azaspiro[4.5]dec-7-yl}methyl)-1H-benzimidazole-6-carbonitrile]"
12,0.1 to 10 nM,"N#Cc1ccc2ncn(C[C@H]3CCC[C@]4(C3)CN(Cc3cccc(-c5ccccc5)n3)C(=O)O4)c2c1 [Example 64, 1-({(5S,7S)-2-oxo-3-[(6-phenyl-2-pyridinyl)methyl]-1-oxa-3-azaspiro[4.5]dec-7-yl}methyl)-1H-benzimidazole-6-carbonitrile]"
13,0.1 to 10 nM,"CCn1ncc(N2C[C@@]3(CCC[C@](C)(Cn4cnc5ccc(C#N)cc54)C3)OC2=O)c1C [Example 16, 1-(((5S,7S)-3-(1-Ethyl-5-methyl-1H-pyrazol-4-yl)-7-methyl-2-oxo-1-oxa-3-azaspiro[4.5]decan-7-yl)methyl)-1H-benzo[d]imidazole-6-carbonitrile]"
14,0.1 to 10 nM,"COc1ncc(N2C[C@@]3(CCC[C@](C)(Cn4cnc5ccc(C#N)cc54)C3)OC2=O)cc1C [Example 132, 1-(((5S,7S)-3-(6-methoxy-5-methylpyridin-3-yl)-7-methyl-2-oxo-1-oxa-3-azaspiro[4.5]decan-7-yl)methyl)-1H-benzo[d]imidazole-6-carbonitrile]"
15,50 to 500 nM,"COc1ccncc1N1C[C@@]2(CCC[C@](C)(Cn3cnc4ccc(C#N)cc43)C2)OC1=O [Example 149, 1-(((5S,7S)-3-(4-methoxypyridin-3-yl)-7-methyl-2-oxo-1-oxa-3-azaspiro[4.5]decan-7-yl)methyl)-1H-benzo[d]imidazole-6-carbonitrile]"
16,10 to 50 nM,"CC(C)(CO)c1cnc(N2C[C@@]3(CCC[C@](C)(Cn4cnc5ccc(C#N)cc54)C3)OC2=O)cn1 [Example 168, 1-(((5S,7S)-3-(5-(1-hydroxy-2-methylpropan-2-yl)pyrazin-2-yl)-7-methyl-2-oxo-1-oxa-3-azaspiro[4.5]decan-7-yl)methyl)-1H-benzo[d]imidazole-6-carbonitrile]"
17,50 to 500 nM,"Cn1nc(CN2C[C@@]3(CCC[C@H](Cn4cnc5ccc(C#N)cc54)C3)OC2=O)cc1-c1ccccc1 [Example 69, 1-({(5S,7S)-3-[(1-methyl-5-phenyl-1H-pyrazol-3-yl)methyl]-2-oxo-1-oxa-3-azaspiro[4.5]dec-7-yl}methyl)-1H-benzimidazole-6-carbonitrile]"
18,0.1 to 10 nM,"C[C@]1(Cn2cnc3ccc(C#N)cc32)CCC[C@@]2(CN(Cc3ccccn3)C(=O)O2)C1 [Example 4, 1-{[(5S,7S)-7-Methyl-2-oxo-3-(2-pyridinylmethyl)-1-oxa-3-azaspiro[4.5]dec-7-yl]methyl}-1H-benzimidazole-6-carbonitrile]"
19,50 to 500 nM,"CC(C)(CO)c1cc(N2C[C@@]3(CCC[C@](C)(Cn4cnc5ccc(C#N)cc54)C3)OC2=O)on1 [Example 21, 1-(((5S,7S)-3-(3-(1-Hydroxy-2-methylpropan-2-yl)isoxazol-5-yl)-7-methyl-2-oxo-1-oxa-3-azaspiro[4.5]decan-7-yl)methyl)-1H-benzo[d]imidazole-6-carbonitrile]"
20,50 to 500 nM,"Cc1noc(N2C[C@@]3(CCC[C@H](Cn4cnc5ccc(C#N)cc54)C3)OC2=O)c1C [Example 58, 1-(((5S,7S)-3-(3,4-dimethylisoxazol-5-yl)-2-oxo-1-oxa-3-azaspiro[4.5]decan-7-yl)methyl)-1H-benzo[d]imidazole-6-carbonitrile]"
21,0.1 to 10 nM,"C[C@]1(Cn2cnc3ccc(C#N)cc32)CCCC2(CN(Cc3cc(F)ccn3)C(=O)O2)C1 (stereo in doubt) [Example 158, 1-(((5S,7S)-3-((4-fluoropyridin-2-yl)methyl)-7-methyl-2-oxo-1-oxa-3-azaspiro[4.5]decan-7-yl)methyl)-1H-benzo[d]imidazole-6-carbonitrile]"
22,0.1 to 10 nM,"CC(C)(C)c1ccc(N2C[C@@]3(CCC[C@](C)(Cn4cnc5ccc(C#N)cc54)C3)OC2=O)nn1 [Example 48, 1-(((5S,7S)-3-(6-(tert-butyl)pyridazin-3-yl)-7-methyl-2-oxo-1-oxa-3-azaspiro[4.5]decan-7-yl)methyl)-1H-benzo[d]imidazole-6-carbonitrile]"
23,10 to 50 nM,"N#Cc1ccc2ncn(C[C@H]3CCC[C@]4(C3)CN(Cc3cn(C5CCCCC5)nn3)C(=O)O4)c2c1 [Example 97, 1-({(5S,7S)-3-[(1-cyclohexaneyl-1H-1,2,3-triazol-4-yl)methyl]-2-oxo-1-oxa-3-azaspiro[4.5]dec-7-yl}methyl)-1H-benzimidazole-6-carbonitrile]"
24,50 to 500 nM,"CN(C)c1cnc(N2C[C@@]3(CCC[C@](C)(Cn4cnc5ccc(C#N)cc54)C3)OC2=O)cn1 [Example 150, 1-(((5S,7S)-3-(5-(dimethylamino)pyrazin-2-yl)-7-methyl-2-oxo-1-oxa-3-azaspiro[4.5]decan-7-yl)methyl)-1H-benzo[d]imidazole-6-carbonitrile]"
25,10 to 50 nM,"COc1cc(C)cnc1N1C[C@@]2(CCC[C@](C)(Cn3cnc4ccc(C#N)cc43)C2)OC1=O [Example 127, 1-(((5S,7S)-3-(3-methoxy-5-methylpyridin-2-yl)-7-methyl-2-oxo-1-oxa-3-azaspiro[4.5]decan-7-yl)methyl)-1H-benzo[d]imidazole-6-carbonitrile]"
